Experiments:
Test in all cases: KINOMEscan
Assay type in all cases: binding
Details in all cases: read-out: percent control
[1] = target: AURKC (Homo sapiens (Human), UniProt Q9UQB9)
From the text: (§1) Example 2. In Vitro Kinase Selectivity Profiling of the Compounds of the Present Disclosure

[2] = target: MAP4K4 (Homo sapiens (Human), UniProt O95819)
From the text: as §1

[3] = target: FGFR3 (Homo sapiens (Human), UniProt P22607)
From the text: as §1

[4] = target: FLT4 (Homo sapiens (Human), UniProt P35916)
From the text: as §1

[5] = target: AAK1 (Homo sapiens (Human), UniProt Q2M2I8)
From the text: as §1

[6] = target: CDK5 (Homo sapiens (Human), UniProt Q00535)
From the text: as §1

[7] = target: DMPK (Homo sapiens (Human), UniProt Q09013)
Sequence of DMPK (Q09013 whole entry): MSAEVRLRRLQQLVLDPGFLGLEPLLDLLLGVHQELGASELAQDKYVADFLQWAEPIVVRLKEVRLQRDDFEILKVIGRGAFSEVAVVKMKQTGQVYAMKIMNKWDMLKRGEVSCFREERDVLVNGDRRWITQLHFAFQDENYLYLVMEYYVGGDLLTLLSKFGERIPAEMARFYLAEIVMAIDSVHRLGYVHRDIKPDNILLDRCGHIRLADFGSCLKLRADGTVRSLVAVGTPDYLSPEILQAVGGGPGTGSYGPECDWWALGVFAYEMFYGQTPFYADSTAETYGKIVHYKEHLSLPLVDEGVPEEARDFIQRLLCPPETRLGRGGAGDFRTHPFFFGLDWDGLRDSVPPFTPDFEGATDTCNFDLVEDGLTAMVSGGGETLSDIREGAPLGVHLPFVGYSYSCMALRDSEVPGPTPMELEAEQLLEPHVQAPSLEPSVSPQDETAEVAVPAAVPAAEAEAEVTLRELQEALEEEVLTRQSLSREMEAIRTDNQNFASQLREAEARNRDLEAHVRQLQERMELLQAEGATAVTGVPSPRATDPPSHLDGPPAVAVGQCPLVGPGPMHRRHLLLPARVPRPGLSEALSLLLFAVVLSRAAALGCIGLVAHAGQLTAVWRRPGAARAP
From the text: as §1

[8] = target: RIPK1 (Homo sapiens (Human), UniProt Q13546)
From the text: as §1

[9] = target: PRKCD (Homo sapiens (Human), UniProt Q05655)
From the text: as §1

[10] = target: TIE1 (Homo sapiens (Human), UniProt P35590)
From the text: as §1

[11] = target: CAMK1 (Homo sapiens (Human), UniProt Q14012)
From the text: as §1

[12] = target: ABL1-phosphorylated (Homo sapiens (Human), UniProt P00519)
From the text: as §1

[13] = target: PFCDPK1(P.falciparum) (Plasmodium falciparum (isolate 3D7), UniProt P62344)
From the text: as §1

[14] = target: DRAK1 (Homo sapiens (Human), UniProt Q9UEE5)
From the text: as §1

[15] = target: PRKD3 (Homo sapiens (Human), UniProt O94806)
From the text: as §1

[16] = target: VEGFR2 (Homo sapiens (Human), UniProt P35968)
Sequence of VEGFR2 (P35968 20-1356): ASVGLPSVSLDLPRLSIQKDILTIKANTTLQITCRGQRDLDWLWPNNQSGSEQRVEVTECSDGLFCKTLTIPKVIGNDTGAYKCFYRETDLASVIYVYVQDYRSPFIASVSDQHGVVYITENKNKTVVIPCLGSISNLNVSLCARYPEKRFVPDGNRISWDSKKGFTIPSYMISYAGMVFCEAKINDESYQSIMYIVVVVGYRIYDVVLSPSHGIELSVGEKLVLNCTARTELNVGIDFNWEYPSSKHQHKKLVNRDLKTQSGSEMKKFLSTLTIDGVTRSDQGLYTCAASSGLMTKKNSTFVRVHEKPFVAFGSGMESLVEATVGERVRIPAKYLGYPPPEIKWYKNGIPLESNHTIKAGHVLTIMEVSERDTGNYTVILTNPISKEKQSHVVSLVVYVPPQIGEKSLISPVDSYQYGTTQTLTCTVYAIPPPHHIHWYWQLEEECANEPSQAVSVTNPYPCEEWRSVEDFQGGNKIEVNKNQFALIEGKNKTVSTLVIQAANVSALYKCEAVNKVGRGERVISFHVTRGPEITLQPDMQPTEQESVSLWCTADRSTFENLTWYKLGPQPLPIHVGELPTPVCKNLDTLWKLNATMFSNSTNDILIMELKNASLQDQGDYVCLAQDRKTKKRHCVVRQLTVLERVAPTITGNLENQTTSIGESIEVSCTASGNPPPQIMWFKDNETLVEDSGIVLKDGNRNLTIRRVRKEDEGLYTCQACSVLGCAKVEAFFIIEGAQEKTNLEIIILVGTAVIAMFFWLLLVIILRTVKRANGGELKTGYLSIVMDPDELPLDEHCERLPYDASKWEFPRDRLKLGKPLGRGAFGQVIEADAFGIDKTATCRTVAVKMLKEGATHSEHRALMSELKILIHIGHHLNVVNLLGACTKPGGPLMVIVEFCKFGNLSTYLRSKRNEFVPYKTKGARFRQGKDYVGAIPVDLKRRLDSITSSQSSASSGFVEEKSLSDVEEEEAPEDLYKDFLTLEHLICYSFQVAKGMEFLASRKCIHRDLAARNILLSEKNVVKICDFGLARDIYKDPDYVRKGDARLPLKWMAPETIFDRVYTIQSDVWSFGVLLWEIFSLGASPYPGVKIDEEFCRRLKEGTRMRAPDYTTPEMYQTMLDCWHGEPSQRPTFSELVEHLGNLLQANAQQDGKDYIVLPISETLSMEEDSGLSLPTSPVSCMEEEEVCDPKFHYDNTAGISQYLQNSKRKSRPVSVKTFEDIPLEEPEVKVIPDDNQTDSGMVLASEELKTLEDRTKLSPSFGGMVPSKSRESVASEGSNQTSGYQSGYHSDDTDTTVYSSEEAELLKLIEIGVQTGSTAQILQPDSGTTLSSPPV
From the text: as §1

[17] = target: ACVR1B (Homo sapiens (Human), UniProt P36896)
Sequence of ACVR1B (P36896 24-505): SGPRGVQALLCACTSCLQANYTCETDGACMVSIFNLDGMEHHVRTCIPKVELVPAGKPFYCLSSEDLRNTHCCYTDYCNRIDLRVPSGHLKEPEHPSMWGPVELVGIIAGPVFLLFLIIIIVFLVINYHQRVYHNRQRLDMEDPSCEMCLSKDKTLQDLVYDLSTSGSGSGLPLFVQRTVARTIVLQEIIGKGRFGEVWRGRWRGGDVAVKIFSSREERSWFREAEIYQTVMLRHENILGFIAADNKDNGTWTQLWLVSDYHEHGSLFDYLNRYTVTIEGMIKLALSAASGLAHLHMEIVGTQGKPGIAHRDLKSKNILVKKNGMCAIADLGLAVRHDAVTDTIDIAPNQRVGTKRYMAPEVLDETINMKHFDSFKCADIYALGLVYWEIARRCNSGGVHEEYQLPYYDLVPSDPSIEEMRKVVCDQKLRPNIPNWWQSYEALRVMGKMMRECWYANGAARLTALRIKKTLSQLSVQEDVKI
From the text: as §1

[18] = target: TLK1 (Homo sapiens (Human), UniProt Q9UKI8)
From the text: as §1

[19] = target: MST1R (Homo sapiens (Human), UniProt Q04912)
From the text: as §1

[20] = target: WNK1 (Homo sapiens (Human), UniProt Q9H4A3)
From the text: as §1

[21] = target: CSK (Homo sapiens (Human), UniProt P41240)
From the text: as §1

[22] = target: CDC2L2 (Homo sapiens (Human), UniProt Q9UQ88)
From the text: as §1

[23] = target: TRKB (Homo sapiens (Human), UniProt Q16620)
From the text: as §1

[24] = target: HIPK4 (Homo sapiens (Human), UniProt Q8NE63)
Sequence of HIPK4 (Q8NE63 whole entry): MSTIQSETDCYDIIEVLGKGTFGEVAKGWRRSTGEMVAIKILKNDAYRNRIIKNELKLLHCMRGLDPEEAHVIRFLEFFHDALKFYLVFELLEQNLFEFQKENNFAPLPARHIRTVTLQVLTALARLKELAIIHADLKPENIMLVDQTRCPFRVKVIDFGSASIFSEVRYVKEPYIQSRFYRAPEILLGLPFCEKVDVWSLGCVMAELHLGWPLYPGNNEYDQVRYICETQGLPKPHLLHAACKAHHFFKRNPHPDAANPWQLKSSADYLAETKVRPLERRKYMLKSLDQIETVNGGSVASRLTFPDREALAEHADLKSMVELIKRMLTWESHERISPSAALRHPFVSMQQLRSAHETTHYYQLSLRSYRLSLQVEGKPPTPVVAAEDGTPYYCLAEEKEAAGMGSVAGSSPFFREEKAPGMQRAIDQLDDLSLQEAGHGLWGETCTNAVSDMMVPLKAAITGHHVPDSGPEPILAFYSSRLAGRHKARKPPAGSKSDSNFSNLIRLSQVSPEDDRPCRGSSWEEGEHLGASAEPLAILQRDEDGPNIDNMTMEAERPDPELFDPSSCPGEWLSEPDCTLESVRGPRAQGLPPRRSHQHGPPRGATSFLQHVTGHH
From the text: as §1

[25] = target: INSRR (Homo sapiens (Human), UniProt P14616)
From the text: as §1

[26] = target: CDK7 (Homo sapiens (Human), UniProt P50613)
Sequence of CDK7 (P50613 whole entry): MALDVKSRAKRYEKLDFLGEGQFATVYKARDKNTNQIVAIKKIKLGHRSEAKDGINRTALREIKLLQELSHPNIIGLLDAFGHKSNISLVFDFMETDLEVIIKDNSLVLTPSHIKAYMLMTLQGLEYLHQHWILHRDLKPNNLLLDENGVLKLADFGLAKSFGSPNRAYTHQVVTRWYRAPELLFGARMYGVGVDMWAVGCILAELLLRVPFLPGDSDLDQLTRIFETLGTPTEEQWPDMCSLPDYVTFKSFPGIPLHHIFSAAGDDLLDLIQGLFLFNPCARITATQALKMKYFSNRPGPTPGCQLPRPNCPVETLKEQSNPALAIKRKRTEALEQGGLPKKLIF
From the text: as §1

[27] = target: CSNK1G3 (Homo sapiens (Human), UniProt Q9Y6M4)
Sequence of CSNK1G3 (Q9Y6M4 whole entry): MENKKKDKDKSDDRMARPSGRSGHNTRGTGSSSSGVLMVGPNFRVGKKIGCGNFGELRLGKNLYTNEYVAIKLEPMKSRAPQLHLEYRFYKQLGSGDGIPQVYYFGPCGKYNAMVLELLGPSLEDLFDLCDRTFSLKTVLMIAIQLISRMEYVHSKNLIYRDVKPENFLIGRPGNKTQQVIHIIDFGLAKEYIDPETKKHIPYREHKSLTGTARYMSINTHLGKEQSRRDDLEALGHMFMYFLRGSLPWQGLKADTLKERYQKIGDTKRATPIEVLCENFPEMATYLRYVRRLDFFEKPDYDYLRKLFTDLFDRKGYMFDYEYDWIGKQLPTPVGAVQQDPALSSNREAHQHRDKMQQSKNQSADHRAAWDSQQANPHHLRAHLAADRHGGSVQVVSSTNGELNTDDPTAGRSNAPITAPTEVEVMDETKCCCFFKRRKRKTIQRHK
From the text: as §1

[28] = target: GSK3A (Homo sapiens (Human), UniProt P49840)
From the text: as §1

[29] = target: DDR1 (Homo sapiens (Human), UniProt Q08345)
From the text: as §1

[30] = target: MAK (Homo sapiens (Human), UniProt P20794)
From the text: as §1

[31] = target: CAMK2G (Homo sapiens (Human), UniProt Q13555)
From the text: as §1

[32] = target: PLK3 (Homo sapiens (Human), UniProt Q9H4B4)
From the text: as §1

[33] = target: PIK3CA(H1047Y) (Homo sapiens (Human), UniProt P42336, H1047Y)
From the text: as §1

[34] = target: PRKG2 (Homo sapiens (Human), UniProt Q13237)
From the text: as §1

[35] = target: FLT3(D835H) (Homo sapiens (Human), UniProt P36888, D835H)
From the text: as §1

[36] = target: MLK1 (Homo sapiens (Human), UniProt P80192)
Sequence of MLK1 (P80192 whole entry): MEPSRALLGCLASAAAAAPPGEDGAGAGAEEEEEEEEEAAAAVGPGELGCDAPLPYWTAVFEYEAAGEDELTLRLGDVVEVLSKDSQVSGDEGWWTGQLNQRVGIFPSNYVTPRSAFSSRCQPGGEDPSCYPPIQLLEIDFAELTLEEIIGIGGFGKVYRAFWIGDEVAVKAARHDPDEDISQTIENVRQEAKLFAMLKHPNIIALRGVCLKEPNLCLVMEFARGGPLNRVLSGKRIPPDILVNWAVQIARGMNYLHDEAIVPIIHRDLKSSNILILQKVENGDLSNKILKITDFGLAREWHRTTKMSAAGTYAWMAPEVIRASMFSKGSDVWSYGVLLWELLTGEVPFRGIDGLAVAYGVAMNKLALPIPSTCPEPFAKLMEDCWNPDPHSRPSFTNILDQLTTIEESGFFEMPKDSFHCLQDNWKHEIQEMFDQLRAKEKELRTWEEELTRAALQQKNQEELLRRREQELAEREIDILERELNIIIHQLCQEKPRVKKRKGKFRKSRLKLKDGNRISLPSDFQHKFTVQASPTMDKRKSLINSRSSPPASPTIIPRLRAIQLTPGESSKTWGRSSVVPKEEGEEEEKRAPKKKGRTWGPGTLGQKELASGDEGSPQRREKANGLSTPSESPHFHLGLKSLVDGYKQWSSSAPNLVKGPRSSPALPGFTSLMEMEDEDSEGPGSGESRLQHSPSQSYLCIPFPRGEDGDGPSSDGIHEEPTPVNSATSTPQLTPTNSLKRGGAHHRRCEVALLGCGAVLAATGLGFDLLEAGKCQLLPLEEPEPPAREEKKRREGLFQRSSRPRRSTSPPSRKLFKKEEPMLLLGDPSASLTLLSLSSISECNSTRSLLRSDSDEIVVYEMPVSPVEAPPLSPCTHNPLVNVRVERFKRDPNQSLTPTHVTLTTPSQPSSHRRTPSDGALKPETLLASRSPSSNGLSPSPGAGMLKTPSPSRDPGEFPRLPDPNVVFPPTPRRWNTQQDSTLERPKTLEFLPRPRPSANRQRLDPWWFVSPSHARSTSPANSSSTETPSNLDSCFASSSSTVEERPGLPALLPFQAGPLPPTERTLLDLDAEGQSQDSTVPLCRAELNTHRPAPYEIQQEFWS
From the text: as §1

[37] = target: WNK2 (Homo sapiens (Human), UniProt Q9Y3S1)
From the text: as §1

[38] = target: MKNK2 (Homo sapiens (Human), UniProt Q9HBH9)
From the text: as §1

[39] = target: CDK4-cyclinD3 (Homo sapiens (Human), UniProt P11802)
From the text: as §1

[40] = target: NEK3 (Homo sapiens (Human), UniProt P51956)
From the text: as §1

[41] = target: ERK8 (Homo sapiens (Human), UniProt Q8TD08)
From the text: as §1

## CCN1CCN(Cc2ccc(Nc3nc4ccc(Oc5ccnc(NC(C)=O)c5)cc4n3C)cc2C(F)(F)F)CC1 [Compound I-2]
[1]
  remaining binding at 1 µM: 19%
[2]
  remaining binding at 1 µM: 100%
[3]
  remaining binding at 1 µM: 97%
[4]
  remaining binding at 1 µM: 0.5%
[5]
  remaining binding at 1 µM: 100%
[6]
  remaining binding at 1 µM: 97%
[7]
  remaining binding at 1 µM: 94%
[8]
  remaining binding at 1 µM: 88%
[9]
  remaining binding at 1 µM: 92%
[10]
  remaining binding at 1 µM: 11%
[11]
  remaining binding at 1 µM: 83%
[12]
  remaining binding at 1 µM: 23%
[13]
  remaining binding at 1 µM: 77%
[14]
  remaining binding at 1 µM: 100%
[15]
  remaining binding at 1 µM: 84%
[16]
  remaining binding at 1 µM: 0.85%
[17]
  remaining binding at 1 µM: 100%
[18]
  remaining binding at 1 µM: 87%
[19]
  remaining binding at 1 µM: 80%
[20]
  remaining binding at 1 µM: 100%
[21]
  remaining binding at 1 µM: 63%
[22]
  remaining binding at 1 µM: 0.1%
[23]
  remaining binding at 1 µM: 36%
[24]
  remaining binding at 1 µM: 100%
[25]
  remaining binding at 1 µM: 5.3%
[26]
  remaining binding at 1 µM: 45%
[27]
  remaining binding at 1 µM: 89%
[28]
  remaining binding at 1 µM: 85%
[29]
  remaining binding at 1 µM: 0.05%
[30]
  remaining binding at 1 µM: 78%
[31]
  remaining binding at 1 µM: 100%
[32]
  remaining binding at 1 µM: 81%
[33]
  remaining binding at 1 µM: 62%
[34]
  remaining binding at 1 µM: 92%
[35]
  remaining binding at 1 µM: 47%
[36]
  remaining binding at 1 µM: 100%
[37]
  remaining binding at 1 µM: 98%
[38]
  remaining binding at 1 µM: 82%
[39]
  remaining binding at 1 µM: 72%
[40]
  remaining binding at 1 µM: 77%
[41]
  remaining binding at 1 µM: 79%

## CCN1CCN(Cc2ccc(Nc3nc4ccc(Oc5ccnc(NC(C)=O)c5)c(C)c4n3C)cc2C(F)(F)F)CC1 [Compound I-6, N-(4-(2-(4-((4-ethylpiperazin-1-yl)methyl)-3-(trifluoromethyl)phenylamino)-1,7-dimethyl-1H-benzo[d]imidazol-6-yloxy)pyridin-2-yl)acetamide]
[1]
  remaining binding at 1 µM: 70%
[2]
  remaining binding at 1 µM: 93%
[3]
  remaining binding at 1 µM: 97%
[4]
  remaining binding at 1 µM: 0.7%
[5]
  remaining binding at 1 µM: 96%
[6]
  remaining binding at 1 µM: 90%
[7]
  remaining binding at 1 µM: 100%
[8]
  remaining binding at 1 µM: 96%
[9]
  remaining binding at 1 µM: 89%
[10]
  remaining binding at 1 µM: 4%
[11]
  remaining binding at 1 µM: 93%
[12]
  remaining binding at 1 µM: 11%
[13]
  remaining binding at 1 µM: 65%
[14]
  remaining binding at 1 µM: 99%
[15]
  remaining binding at 1 µM: 92%
[16]
  remaining binding at 1 µM: 1.7%
[17]
  remaining binding at 1 µM: 94%
[18]
  remaining binding at 1 µM: 93%
[19]
  remaining binding at 1 µM: 83%
[20]
  remaining binding at 1 µM: 100%
[21]
  remaining binding at 1 µM: 87%
[22]
  remaining binding at 1 µM: 0.2%
[23]
  remaining binding at 1 µM: 1.4%
[24]
  remaining binding at 1 µM: 100%
[25]
  remaining binding at 1 µM: 5.8%
[26]
  remaining binding at 1 µM: 15%
[27]
  remaining binding at 1 µM: 94%
[28]
  remaining binding at 1 µM: 93%
[29]
  remaining binding at 1 µM: 0%
[30]
  remaining binding at 1 µM: 86%
[31]
  remaining binding at 1 µM: 100%
[32]
  remaining binding at 1 µM: 93%
[33]
  remaining binding at 1 µM: 86%
[34]
  remaining binding at 1 µM: 93%
[35]
  remaining binding at 1 µM: 24%
[36]
  remaining binding at 1 µM: 100%
[37]
  remaining binding at 1 µM: 66%
[38]
  remaining binding at 1 µM: 66%
[39]
  remaining binding at 1 µM: 95%
[40]
  remaining binding at 1 µM: 92%
[41]
  remaining binding at 1 µM: 75%
